Results: paper PMC10826971, “Evaluating protein cross-linking as a therapeutic strategy to stabilize SOD1 variants in a mouse model of familial ALS” (PLOS Biology, 2024)

Legend:
[1] = molecular target: T1, SOD1^H46R (Homo sapiens, UniProt P00441, H47R); experiment: Differential scanning fluorimetry (DSF), thermal stability; assay type: binding
T1 construct: made in house; host or cells: EGy118ΔSOD1 yeast, YEp351 expression vector
Protocol: (§1) To understand how cross-linking effects SOD1 stability, we quantified changes in unfolding temperature (ΔTu, hereafter thermal stability).
(§2) The effect of cross-link formation on the thermal stability of SOD1 was determined by differential scanning fluorimetry as previously described. […] After incubation, SYPRO Orange (Invitrogen Corporation, Carlsbad, California, USA), an environmentally sensitive fluorescent dye which is quenched in an aqueous environment but becomes unquenched once it binds hydrophobic residues, was added to the reaction mixture to a final concentration of 200×. The samples were then transferred to a fast optical 96-well reaction plate (Applied Biosystem, Life Technologies Corporation, Carlsbad, California, USA) and loaded on to the real-time PCR machine (Applied Biosystem, Life Technologies Corporation, Carlsbad, California, USA) after plate was spun down to eliminate bubbles. The Melt curve template in StepOne Plus software was used to set up a method. […] The final concentration of DMSO in the reaction mixture was checked as it contributes to the denaturation of proteins. Dilutions were performed accordingly to maintain the final concentration of DMSO less than 1% (vol/vol). All samples were run in technical triplicates. The background data was subtracted from the average relative fluorescence and average derivate for each temperature point, and the data were normalized before Tus were quantified by averaging the negative first derivative of relative fluorescence of all 3 runs and identifying the local minima.

[2] = molecular target: T2, SOD1^G85R (Homo sapiens, UniProt P00441, G86R); experiment: as above; assay type: binding
T2 construct: made in house; host or cells: EGy118ΔSOD1 yeast, YEp351 expression vector
T2 sequence (P00441 2-154 G86R limits assumed): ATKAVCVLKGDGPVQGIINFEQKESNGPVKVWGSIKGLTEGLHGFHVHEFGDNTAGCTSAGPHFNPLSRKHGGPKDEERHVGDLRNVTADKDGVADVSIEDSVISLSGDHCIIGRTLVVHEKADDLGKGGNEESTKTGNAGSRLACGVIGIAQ
Protocol: as §1, §2

T1 sequence (P00441 2-154 H47R limits assumed): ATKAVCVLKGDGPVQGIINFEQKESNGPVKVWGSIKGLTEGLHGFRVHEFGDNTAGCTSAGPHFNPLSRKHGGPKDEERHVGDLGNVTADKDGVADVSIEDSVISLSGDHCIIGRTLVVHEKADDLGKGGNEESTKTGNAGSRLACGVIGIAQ

## [O-][S+]1CCCCS1 (stereo not shown) [S-XL6, 1,2-dithiane-1-oxide]
[1]; 10-fold molar excess S-XL6, 4 h 37°C, untreated 46.3°C
  unfolding temperature (Tu) of S-XL6 cross-linked protein: 69.3 °C
[1]; SOD1 H46R Protein+S-XL6, Avg. Temp 88.537
  Normalized ROX: 0.19
[1]; SOD1 H46R Protein+S-XL6, Avg. Temp 88.845
  Normalized ROX: 0.18
[1]; SOD1 H46R Protein+S-XL6, Avg. Temp 89.124
  Normalized ROX: 0.17
[1]; SOD1 H46R Protein+S-XL6, Avg. Temp 89.441
  Normalized ROX: 0.16
[1]; SOD1 H46R Protein+S-XL6, Avg. Temp 89.738
  Normalized ROX: 0.15
[1]; SOD1 H46R Protein+S-XL6, Avg. Temp 90.026
  Normalized ROX: 0.15
[1]; SOD1 H46R Protein+S-XL6, Avg. Temp 90.347
  Normalized ROX: 0.14
[1]; SOD1 H46R Protein+S-XL6, Avg. Temp 90.631
  Normalized ROX: 0.13
[1]; SOD1 H46R Protein+S-XL6, Avg. Temp 90.929
  Normalized ROX: 0.12
[1]; SOD1 H46R Protein+S-XL6, Avg. Temp 91.236
  Normalized ROX: 0.12
[1]; SOD1 H46R Protein+S-XL6, Avg. Temp 91.540
  Normalized ROX: 0.11
[1]; SOD1 H46R Protein+S-XL6, Avg. Temp 91.847
  Normalized ROX: 0.10
[1]; SOD1 H46R Protein+S-XL6, Avg. Temp 92.140
  Normalized ROX: 0.10
[1]; SOD1 H46R Protein+S-XL6, Avg. Temp 92.454
  Normalized ROX: 0.09
[1]; SOD1 H46R Protein+S-XL6, Avg. Temp 92.741
  Normalized ROX: 0.08
[1]; SOD1 H46R Protein+S-XL6, Avg. Temp 93.029
  Normalized ROX: 0.08
[1]; SOD1 H46R Protein+S-XL6, Avg. Temp 93.345
  Normalized ROX: 0.07
[1]; SOD1 H46R Protein+S-XL6, Avg. Temp 93.646
  Normalized ROX: 0.07
[1]; SOD1 H46R Protein+S-XL6, Avg. Temp 93.947
  Normalized ROX: 0.06
[1]; SOD1 H46R Protein+S-XL6, Avg. Temp 94.241
  Normalized ROX: 0.06
[1]; SOD1 H46R Protein+S-XL6, Avg. Temp 94.530
  Normalized ROX: 0.0527
[1]; SOD1 H46R Protein+S-XL6, Avg. Temp 94.809
  Normalized ROX: 0.05
[1]; SOD1 H46R Protein+S-XL6, Avg. Temp 95.129
  Normalized ROX: 0.0441
[1]; SOD1 H46R Protein+S-XL6, Avg. Temp 95.418
  Normalized ROX: 0.04
[1]; SOD1 H46R Protein+S-XL6, Avg. Temp 95.750
  Normalized ROX: 0.0365
[1]; SOD1 H46R Protein+S-XL6, Avg. Temp 96.054
  Normalized ROX: 0.032
[1]; SOD1 H46R Protein+S-XL6, Avg. Temp 96.342
  Normalized ROX: 0.03
[1]; SOD1 H46R Protein+S-XL6, Avg. Temp 96.634
  Normalized ROX: 0.0257
[1]; SOD1 H46R Protein+S-XL6, Avg. Temp 96.939
  Normalized ROX: 0.0228
[1]; SOD1 H46R Protein+S-XL6, Avg. Temp 97.230
  Normalized ROX: 0.02
[1]; SOD1 H46R Protein+S-XL6, Avg. Temp 97.449
  Normalized ROX: 0.017
[1]; SOD1 H46R Protein+S-XL6, Avg. Temp 97.842
  Normalized ROX: 0.0143
[1]; SOD1 H46R Protein+S-XL6, Avg. Temp 98.133
  Normalized ROX: 0.0127
[1]; SOD1 H46R Protein+S-XL6, Avg. Temp 98.436
  Normalized ROX: 0.01
[1]; SOD1 H46R Protein+S-XL6, Avg. Temp 98.745
  Normalized ROX: 0.00697
[1]; SOD1 H46R Protein+S-XL6, Avg. Temp 99.031
  Normalized ROX: 0.00571
[1]; SOD1 H46R Protein+S-XL6, Avg. Temp 99.342
  Normalized ROX: 0.0034
[1]; SOD1 H46R Protein+S-XL6, Avg. Temp 99.632
  Normalized ROX: 0.00127
[1]; SOD1 H46R Protein+S-XL6, Avg. Temp 99.860
  Normalized ROX: 0.00
[2]; 10-fold molar excess S-XL6, 4 h 37°C, untreated 40.8°C
  unfolding temperature (Tu) of S-XL6 cross-linked protein: 65.1 °C
[2]; SOD1 G85R Protein+S-XL6, Avg. Temp 88.557
  Normalized ROX: 0.19
[2]; SOD1 G85R Protein+S-XL6, Avg. Temp 88.853
  Normalized ROX: 0.18
[2]; SOD1 G85R Protein+S-XL6, Avg. Temp 89.160
  Normalized ROX: 0.17
[2]; SOD1 G85R Protein+S-XL6, Avg. Temp 89.454
  Normalized ROX: 0.17
[2]; SOD1 G85R Protein+S-XL6, Avg. Temp 89.762
  Normalized ROX: 0.16
[2]; SOD1 G85R Protein+S-XL6, Avg. Temp 90.051
  Normalized ROX: 0.15
[2]; SOD1 G85R Protein+S-XL6, Avg. Temp 90.354
  Normalized ROX: 0.15
[2]; SOD1 G85R Protein+S-XL6, Avg. Temp 90.655
  Normalized ROX: 0.14
[2]; SOD1 G85R Protein+S-XL6, Avg. Temp 90.952
  Normalized ROX: 0.13
[2]; SOD1 G85R Protein+S-XL6, Avg. Temp 91.251
  Normalized ROX: 0.13
[2]; SOD1 G85R Protein+S-XL6, Avg. Temp 91.555
  Normalized ROX: 0.12
